Results on one substance are retold here after patent US20200188441A1, “METHODS AND COMPOSITIONS FOR REDUCING CORNEAL ENDOTHELIAL CELL LOSS” (The Schepens Eye Research Institute, Inc., priority 2017, published 2020).

Test [1] relates to corneal endothelial cells. The experiment in a line: IFNγ- and TNFα-mediated corneal endothelial cell apoptosis in corneal cups ex vivo (TUNEL). Conditions: VIP 10^−6 M; 18 hours of incubation. The format is cell-based, C57BL/6. The procedure:
FIG. 10A is a set of micrographs and FIG. 10B is a graph showing that VIP suppresses IFNγ- and TNFα-mediated corneal endothelial cell apoptosis. FIG. 10A: Representative confocal micrographs showing nave C57BL/6 corneal cups incubated with either IFNγ or TNFα with or without VIP (10^−12, 10^−9, 10^−6 M). After 18 hours of incubation, corneas were stained for zonula occluden-1 (ZO-1, green) and terminal deoxynucleotidyl transferase-mediated dUTP nick-end labeling assay (TUNEL, red) to visualize endothelial cell-to-cell junctions and apoptotic cells, respectively. The scale bars are equal to 100 μm (magnification ×40). FIG. 10B: Bar diagram showing the percentages of apoptotic (TUNEL-positive) corneal endothelial cells incubated ex vivo with either IFNγ or TNFα with different doses of VIP. […] Data are presented as mean±SEM. Each group consists of n=5 corneas and data from one out of two independent experiments is shown.

Test [2] has as its system corneal graft. The experiment in a line: Murine model of syngeneic corneal transplantation with endothelial injury. The format is in vivo. From the text:
FIG. 11A: Representative slit-lamp images showing corneas at week 2-6 post-transplantation (magnification ×25). […] FIG. 11C: Representative confocal micrographs of central area of transplanted corneas isolated from VIP-treated mice and the control groups at week 2, 4 and 6 after transplantation. To visualize corneal endothelial cell-to-cell junctions, corneas were stained with zonula occluden-1 (ZO-1, green). The scale bars are equal to 100 μm (magnification ×40). FIG. 11D: Bar diagram showing central endothelial cell density in VIP-treated corneas and controls at 2, 4 and 6 weeks post-transplantation. Data are presented as mean±SEM. Each group consists of n=6 corneas, and data from one out of two independent experiments is shown.

Test [3] concerns human corneal endothelial cells. Nature of the test: Corneal endothelial wound healing in vitro. The format is cell-based. Conditions: VIP 10^−9, 10^−7 and 10^−6 M; 12 and 24 hours after incubation; vs control. The source says:
FIG. 9 is a graph showing that VIP treatment of human corneal endothelial cells accelerates corneal endothelial wound healing in vitro in a dose-dependent manner Percentage of healed endothelial area compared to baseline in VIP-treated groups and in control. […] Error bars indicate mean±SEM. Each group consists of n=9, and data from one out of two independent experiments is shown.

Test [4] has as its system corneal graft. The experiment in a line: High-risk allogeneic corneal transplantation. The format is in vivo, mice. From the text:
FIGS. 12A-D are graphs and images showing the effect of VIP treatment on high-risk corneal transplant survival. Animals underwent high-risk allogeneic corneal transplantation and received treatment with VIP at 1, 3, 5, 7 and 9 days after transplantation. […] Each group consists of n=14. FIG. 12C: Representative confocal micrographs of central area of transplanted corneas in VIP-treated mice and in controls at 1, 2 and 8 weeks post-transplantation. Corneal endothelial cell-to-cell junction were stained and visualized with zonula occluden-1 (ZO-1, green). The scale bars are equal to 100 μm (magnification ×40). […] Horizontal line represents the CEnC density of nave age-matched C57BL/6 corneas. Each group consists of n=5 corneas. All data are presented as mean±SEM, and data from one out of two independent experiments is shown.

No end group written: not given here.

On to “VIP: vasoactive intestinal polypeptide, a neuropeptide; exemplary human sequence SEQ ID NO: 5 (HSDAVFTDNYTRLRKQMAVKKYLNSILN; ends and bridges not checked; UniProt P01282 125-152, looked up)”, for which the “IFNγ-mediated corneal endothelial cell apoptosis (TUNEL-positive cells)” value in test [1] is recorded as “significantly suppresses”. For the same substance, the “TNFα-mediated corneal endothelial cell apoptosis (TUNEL-positive cells)” value in test [1] is given as “significantly suppresses”. Also, the “corneal endothelial wound healing” value in the test on corneal graft [2] (syngeneic transplantation with endothelial injury) is on record as “enhances corneal endothelial wound healing”. The graft opacity scores result was “significantly decreased” in the test with corneal graft [2] (week 2 to 6 post-transplantation, vs control); “significantly decreased” in the test on corneal graft [4] (4 to 8 weeks post-transplantation, VIP at 1, 3, 5, 7 and 9 days after transplantation). Besides, the “wound healing (percentage of healed endothelial area compared to baseline)” value in test [3] is listed as “significantly enhanced wound healing”. Moreover, in the test on corneal graft [4] (8 weeks post-transplantation, vs control), the “central CEnC density” value was “significantly higher”. The “hazard ratio (graft survival, VIP-treated vs controls)” value in the test on corneal graft [4] (8 weeks, 95% CI 0.04-0.26, Log rank test) is given as 0.10. The substance also gave a graft survival in the test on corneal graft [4] (weekly examination for 8 weeks, controls 0%) of 85%.
